Test results reported in US20020045603A1, “Method of inhibiting membrane-type matrix metalloproteinase” (The Research Foundation of State University of New York, priority 1998, published 2002).
Entries after “also recorded” stand apart in the source; their conditions may differ. One block for each compound: values may come before it.

What was measured:
[1] = Solubility in aqueous systems; type: physicochemical
[2] = rat, in vivo, po
[3] = tested on: HT-1080 fibrosarcoma cells; experiment: Matrigel invasion of HT-1080 fibrosarcoma cells; type: cell-based, human; details: for concentration of maximal inhibition of invasion: 24 hr, 10% serum
Protocol: HT-1080 cells were allowed to invade through Matrigel (Collaborative Research, Bedford, Mass.) for 24 hr in medium containing 10% serum. CMT-3 or CMT-8 were added to the medium to assess their ability to inhibit invasivity of the cells. CMT-3 was tested at final concentrations of 1 μM or 10 μM; CMT-8 was tested twice at a final concentration of 50 μM. The invading cells were counted, and the relative numbers of cells were expressed as means of triplicate measurements.

Serum half-life = details: in vivo
MG-63 osteosarcoma cells = experiment: MMP-2 expression and MT1-MMP-dependent activation of pro-MMP-2, concanavalin A-treated MG-63 cells, zymography; type: cell-based, human
Protocol: MG-63 cells, an osteosarcoma cell line, were grown in culture and treated with 40 μg/mL concanavalin A to induce MT1-MMP-dependent activation of pro-MMP-2. Culture-conditioned medium was collected, as a source of pro-MMP-2, and was incubated in the presence of the membrane fraction of COS-1 cells transfected to express MT1-MMP.

[4] = tested on: HT-1080 fibrosarcoma cells; experiment: Transwell migration of HT-1080 fibrosarcoma cells; type: cell-based, human; details: 18 hr, 10% serum; for inhibition of HT-1080 fibrosarcoma cell migration: 0.5 μM
Text: HT-1080 cells were allowed to migrate in the presence of medium containing 10% serum for 18 hr in Transwell chambers (Costar, Cambridge, Mass.). […] The data are expressed as means of triplicate measurements.

cell surface integrins = experiment: Blocking of cell surface integrins; type: cell-based; details: data not shown
MT1-MMP [5] = target: T1, MT1-MMP (Homo sapiens, UniProt P50281); experiment: Direct digestion of [3H-methyl]-gelatin by membrane fraction of MT1-MMP-transfected COS-1 cells; type: biochemical; details: 18 hr at 37° C.
Protocol: Confluent MT1-MMP-transfected COS-1 cells (2×10^7 cells) were harvested following treatment with trypsin-EDTA and washed thoroughly. Cells were suspended in 25 mM sucrose, 5 mM MgCl2 in Tris base, pH 7.4, and then subjected to nitrogen (N2) cavitation at 1000 p.s.i. for 30 min at 4° C. Whole cells and nuclei were removed by centrifugation at 770×g for 10 min, and the postnuclear supernatant was centrifuged at 6,000×g for 15 min to remove heavy organelles. The supernatant was centrifuged at 100,000×g for 60 min, and the cell membrane fraction, comprising plasma membranes, Golgi, and ribosomes, was recovered in the pellet. The 100,000×g supernatant was designated as cytosol.
Radiolabeled (^3H) collagen type I was denatured, to unravel the triple helix to produce [^3H-methyl]-gelatin. When separated by SDS-PAGE, and examined by autoradiography, the denatured collagen yields three bands: α(˜100 kDa), β(˜200 kDa), and γ(˜300 kDa), corresponding to the various components of the collagen in the sample. The tritiated gelatin substrate was incubated with a membrane fraction obtained by MT1-MMP-transfected COS-1 cells as described above. The gelatinolytic activity was calculated as % lysis of the α, β, and γ intact gelatin components assessed by laser densitometer scanning of the fluorogram.

normal cells = experiment: Cytotoxicity in normal cells; type: cell-based
studied cell lines [6] = experiment: Cytotoxicity to the cells under the conditions used; type: cell-based; details: data not shown
MT1-MMP [7] = target: T1, MT1-MMP; experiment: Activation of pro-gelatinase A by MT1-MMP membrane fraction, gelatin zymography; type: biochemical; details: 10, 20, and 50 μM; 18 h at 37° C.
Protocol: Recombinant pro-gelatinase A (72 kDa type IV gelatinase) can be activated to from 62 kDa active gelatinase by MT-MMP-containing plasma membrane fractions. To examine the ability of a tetracycline compound to inhibit this gelatinase activating property of MT-MMP, membrane fractions obtained according to Example 1B were incubated with recombinant human pro-gelatinase A for 18 h at 37° C. with or without CMT-3, and examined by zymography to evaluate enzyme activation.
Specifically, pro-MMP-2 was obtained from the culture-conditioned medium from MMP-2-transfected COS-1 cells.
Conditioned media were collected from the cultures that had been treated with CMT-3 for 2 days. Media were then incubated with SDS-gel electrophoresis sample buffer for 30 min at room temperature, and then analyzed by gel electrophoresis on SDS-polyacrylamide gel (10%) containing gelatin (1 mg/mL; Novex, Inc.). Following electrophoresis, the gels were washed twice with 0.25% TRITON® X-100 for 30 min each (to renature the gelatinase), and incubated for 18-24 hr at 37° C. in a Tris-HCl buffer, pH 7.4 (see, e.g., Lokeshwar 1993). After incubation, the gels were briefly rinsed in distilled water and stained with 0.25% Coomassie brilliant blue R250. The location of gelatinase activity in the gels is visible as a colorless area on an otherwise uniform blue background, indicative of digested gelatin.

studied cell lines [8] = experiment: Initial attachment and spreading of cells on extracellular matrix or Matrigel substrate; type: cell-based; details: data not shown
[9] = tested on: prostate and melanoma tumor; details: in vivo; Lokeshwar et al. 1998; Seftor et al. 1998; cited from earlier work
MT1-MMP [10] = target: T1, MT1-MMP; experiment: Conversion of pro-gelatinase A to active gelatinase A by recombinant MT1-MMP, SDS-PAGE; type: biochemical
Protocol: The proteolytic activity of MT1-MMP was assessed using gelatinase A zymography. Pure recombinant pro-MMP-2 (72 kDa gelatinase or pro-gelatinase A) and MT1-MMP were co-incubated in the presence or absence of CMT-3 (0.5-3.0 μM). After incubation, the enzyme mixture was examined by SDS-PAGE and the protein (enzyme) bands were stained with Coomassie brilliant blue.

MT1-MMP [11] = target: T1, MT1-MMP; experiment: Caseinolytic activity of recombinant MT1-MMP, casein zymography; type: biochemical
Protocol: In FIG. 3A, the proteolytic activity of MT1-MMP and its inhibition by a tetracycline compound was assessed using casein zymography: […]

Compound: CN(C)C1C(=O)C(C#N)=C(O)C2(O)C(=O)C3=C(O)c4c(O)cccc4C(C)(O)C3CC12 (stereo not shown) [CMT-2, tetracyclinonitrile]
solubility in aqueous systems [1]: low solubility
blood levels [2]: no detectable blood levels

Compound: NC(=O)C1=C(O)C[C@@H]2C[C@@H]3Cc4cccc(O)c4C(=O)C3=C(O)[C@]2(O)C1=O [CMT-3, 6-demethyl-6-deoxy-4-de(dimethylamino)tetracycline]
prevention of invasion in comparison to CMT-8 [3]: slightly more effective
concentration of maximal inhibition of invasion [3]: 50 µM
serum half-life (Serum half-life): approximately 28 hr
gelatin-degrading activity of incubated medium (MG-63 osteosarcoma cells; 0.5 μM to 3.5 μM): inhibited
percent of activated MMP-2 in the total expressed MMP-2 (MG-63 osteosarcoma cells; 0.5 μM to 3.5 μM): decreased in a dose-dependent fashion
active MMP-2 (MG-63 osteosarcoma cells; 3.0 μM and 3.5 μM): no active MMP-2 was detected
inhibition of HT-1080 fibrosarcoma cell migration [4]: clear inhibition; also recorded: Effective inhibition
concentration of maximal inhibition of migration [4]: 50 µM
blocking of cell surface integrins (cell surface integrins): did not block
inhibition of gelatinolytic activity (MT1-MMP [5]; 5 μM): 16.3%
inhibition of gelatinolytic activity (MT1-MMP [5]; 10 μM): 35%
inhibition of gelatinolytic activity (MT1-MMP [5]; 20 μM): 32%
cytotoxicity in normal cells (normal cells): little or substantially no cytotoxicity
cytotoxicity to the cells (studied cell lines [6]): not cytotoxic
inhibition of MT1-MMP-induced activation of pro-gelatinase A (MT1-MMP [7]): inhibited
initial attachment and spreading of studied cell lines (studied cell lines [8]): did not prevent
tumor growth and metastasis [9]: suppress prostate and melanoma tumor growth and metastasis
inhibition of the formation of the smaller molecular weight species of gelatinase A (MT1-MMP [10]; 3.0 μM): essentially completely inhibits
inhibition of the conversion of pro-gelatinase A to active gelatinase A (MT1-MMP [10]; 0.5, 1.0, 1.5 and 3.0 μM, 50 ng recombinant MT1-MMP): progressive inhibition
IC50 (MT1-MMP [11]): 1000 to 3000 nM
inhibition of caseinolytic activity (MT1-MMP [11]; 0.5, 1.5, and 3.0 μM, 50 ng MT1-MMP, β-casein 52 μM): progressive inhibition of caseinolytic activity by increasing

Compound: C[C@H]1c2cccc(O)c2C(O)=C2C(=O)[C@]3(O)C(O)=C(C(N)=O)C(=O)C[C@@H]3[C@@H](O)[C@@H]21 [CMT-8, 6-deoxy-5α-hydroxy-4-de(dimethylamino)tetracycline]
concentration of maximal inhibition of invasion [3]: 50 µM
inhibition of HT-1080 fibrosarcoma cell migration [4]: clear inhibition; also recorded: Effective inhibition
concentration of maximal inhibition of migration [4]: 50 µM
blocking of cell surface integrins (cell surface integrins): did not block
cytotoxicity to the cells (studied cell lines [6]): not cytotoxic
initial attachment and spreading of studied cell lines (studied cell lines [8]): did not prevent

inhibition of caseinolytic activity (MT1-MMP [11]; 2 mM): did inhibit
Compound: O=C(O)CN(CCN(CC(=O)O)CC(=O)O)CC(=O)O [EDTA, reference compound]

Compound: O=S(=O)(F)Cc1ccccc1 [PMSF, reference compound]
inhibition of caseinolytic activity (MT1-MMP [11]; 0.5 mM): did not inhibit
